Values quoted from earlier work in patent US9199951B2, “Process for the manufacture of a 1,2-epoxide” (Hexion Inc., priority 2008, dated 2015).
In brackets after ≈: the same amount, converted by molar mass.

Conditions: grams per liter water at 20° C.; for Solubility in water: terminal olefins of Table 2

In the case of `C=CCCCCCC` [1-octene], the Solubility in water is listed as 0.00027 g/L (≈ 2.41 µM).
In the case of `C=CCOC(C)=O` [Allyl acetate], the solubility is given as “about 10 g/L” and the Solubility in water is given as ~10 g/L.
For `C=CCO` [Allyl alcohol], the Solubility in water is given as “miscible”.
In the case of `C=CCCl` [Allyl chloride], the solubility is listed as 3.6 g/L and the Solubility in water is listed as 3.6 g/L.
In the case of `C=CCBr` [allyl bromide], the solubility is given as 4 g/L.
